Assay [1] has as its system GBM. Kind of assay: Selectivity ratio of EC50 for antiproliferative activity against patient-derived GBM cells to EC50 for antiproliferative activity against patient-derived GBM cells in presence of temozolomide. It is filed as functional, Homo sapiens.
Assay [2] relates to GBM. Kind of assay: cells. It is filed as functional, cell-based. The note with it: Homo sapiens, 48 h.
Description: Synergistic antiproliferative activity against patient-derived GBM cells assessed as reduction in cell viability after 48 hrs in presence of temozolomide by 5-Ethynyl-2'-deoxyuridine incorporation assay
In assay [3] the test system is GBM. Kind of assay: Synergistic antiproliferative activity against patient-derived GBM cells assessed as cell viability after 48 hrs in presence of temozolomide by 5-Ethynyl-2'-deoxyuridine incorporation assay. Type of assay: functional, cell-based. As to conditions: Homo sapiens.
Assay [4] has as its system GBM. Kind of assay: Selectivity ratio of IC50 for antiproliferative activity against patient-derived GBM cells to IC50 for antiproliferative activity against patient-derived GBM cells in presence of temozolomide. It is filed as functional, Homo sapiens.
The test system of assay [5] is GBM. Kind of assay: Antiproliferative activity against patient-derived GBM cells assessed as cell viability after 48 hrs by 5-Ethynyl-2'-deoxyuridine incorporation assay. It is filed as functional, cell-based. As to conditions: Homo sapiens.
Assay [6] concerns GBM. Kind of assay: Cytotoxicity against patient-derived GBM cells assessed as LDH release after 96 hrs by spectrophotometric method. It is filed as functional, cell-based. The note with it: Homo sapiens. On the technique in general: LDH in the medium is a marker of cell lysis.
In assay [7] the test system is GBM. Kind of assay: Antiproliferative activity against patient-derived GBM cells assessed as reduction in cell viability after 48 hrs by 5-Ethynyl-2'-deoxyuridine incorporation assay. It is filed as functional, cell-based. As to conditions: Homo sapiens.

As a reminder, the IC50 is the concentration needed to halve the response being measured. For orientation: EC50 means the concentration that produces a half-maximal response.

Regarding `C[C@@H](Oc1cc(-c2cnn(C3CCNCC3)c2)cnc1N)c1c(Cl)ccc(F)c1Cl` [CRIZOTINIB], the “Ratio EC50” value with GBM [1] worked out at 1.7. For the same compound, the values for the IC50 in the assay with GBM [2] and with GBM [7] were 480 nM and 540 nM, respectively. Moreover, the EC50 in the assay with GBM [3] stood at 3200 nM; in the assay with GBM [5], 5600 nM; with GBM [6], 4300 nM. In the assay with GBM [4], the “Ratio IC50” value is reported as 1.13.

Consider `C[C@@H](Oc1cc(-c2cnn(C3CCN(C4=C(/C=C/C5=[N+](C)c6ccccc6C5(C)C)CCC/C4=C\C=C4\N(C)c5ccccc5C4(C)C)CC3)c2)cnc1N)c1c(Cl)ccc(F)c1Cl.[I-]`, for which, in the assay with GBM [1], the “Ratio EC50” value was 3. The IC50 worked out at 1 nM with GBM [2] and 4.7 nM with GBM [7]. Moreover, the EC50 was 15 nM with GBM [3], 50 nM in the assay with GBM [5] and 93.1 nM in the assay on GBM [6].

The values are drawn from ChEMBL document CHEMBL4346759, “The synthesis of a novel Crizotinib heptamethine cyanine dye conjugate that potentiates the cytostatic and cytotoxic effects of Crizotinib in patient-derived glioblastoma cell lines” (Bioorg Med Chem Lett, 2019).
